# Measurements published in US20030144249A1, “Use of organophosphorous compounds for producing a medicament for treating infections” (priority 2000, published 2003).
# Columns and labels:
# [1] = system: Amaranthus retroflexus; assay: Herbicidal activity, soil, post-emergence; type: in vivo; conditions: Soil, post-emergence, 500 gram/hectare
# Method: (§1) Herbicidal activity is determined using standard methods.
# (§2) Substances 1 to 8 listed on page 5 are again investigated.
# [2] = system: Setaria viridis; assay: Herbicidal activity, soil, post-emergence; type: in vivo; conditions: Soil, post-emergence, 500 gram/hectare
# Method: as §1, §2
# [3] = system: Galium aperine; assay: Herbicidal activity, soil, post-emergence; type: in vivo; conditions: Soil, post-emergence, 500 gram/hectare
# Method: as §1, §2
# [4] = system: Cyperus esculentus; assay: Herbicidal activity, soil, post-emergence; type: in vivo; conditions: Soil, post-emergence, 500 gram/hectare
# Method: as §1, §2
# [5] = system: Avena fatua; assay: Herbicidal activity, soil, post-emergence; type: in vivo; conditions: Soil, post-emergence, 500 gram/hectare
# Method: as §1, §2
# [6] = system: Beta vulgaris; assay: Herbicidal activity, soil, post-emergence; type: in vivo; conditions: Soil, post-emergence, 500 gram/hectare
# Method: as §1, §2
# [7] = system: Zea mays; assay: Herbicidal activity, soil, post-emergence; type: in vivo; conditions: Soil, post-emergence, 500 gram/hectare
# Method: as §1, §2
# [8] = system: Xanthium strumarium; assay: Herbicidal activity, soil, post-emergence; type: in vivo; conditions: Soil, post-emergence, 500 gram/hectare
# Method: as §1, §2
# [9] = system: Alopecurus myosuroides; assay: Herbicidal activity, soil, post-emergence; type: in vivo; conditions: Soil, post-emergence, 500 gram/hectare
# Method: as §1, §2
# [10] = system: Sinapis arvensis; assay: Herbicidal activity, soil, post-emergence; type: in vivo; conditions: Mutarda arvensis; Soil, post-emergence; 500 gram/hectare
# Method: as §1, §2
# [11] = system: Abutilon theophrasti; assay: Herbicidal activity, soil, post-emergence; type: in vivo; conditions: Soil, post-emergence, 500 gram/hectare
# Method: as §1, §2
# [12] = target: T1, DOXP reductoisomerase from Helicobacter pylori (Helicobacter pylori, UniProt P56139); assay: DOXP reductoisomerase inhibition (NADPH oxidation at 365 nm); type: biochemical; conditions: recombinant enzyme; 0.3 mM NADPH, 1 mM DOXP, pH 7.5; read-out: IC50 (nM) of DOXP reductoisomerase from Helicobacter pylori
# T1 construct: made in house; host or cells: Helicobacter pylori (so in the source)
# T1 sequence (P56139 1-368): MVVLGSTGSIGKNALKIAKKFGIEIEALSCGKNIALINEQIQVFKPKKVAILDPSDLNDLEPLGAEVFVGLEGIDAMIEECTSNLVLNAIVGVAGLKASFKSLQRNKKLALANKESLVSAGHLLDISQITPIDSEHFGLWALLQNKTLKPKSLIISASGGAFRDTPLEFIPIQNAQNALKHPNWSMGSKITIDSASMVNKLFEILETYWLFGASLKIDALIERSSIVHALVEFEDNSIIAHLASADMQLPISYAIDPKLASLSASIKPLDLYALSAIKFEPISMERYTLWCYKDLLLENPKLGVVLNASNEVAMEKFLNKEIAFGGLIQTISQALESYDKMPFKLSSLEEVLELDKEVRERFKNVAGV
# Method: The DOXP reductoisomerase of Helicobacter pylori was expressed as a recombinant protein in Helicobacter pylori. The activity of DOXP reductoisomerase was determined in a batch containing 100 mM tris-HCl (pH=7.5), 1 mM MnCl2, 0.3 mM NADPH and 1 mM DOXP.
# The oxidation of NADPH was here measured at 365 nm in a spectrophotometer. The inhibition studies were performed by measuring the activity of DOXP reductoisomerase in the presence of compounds 1 to 8 (see page 5) at various concentrations between 0. 1 and 100 μmol l^−1.
# [13] = system: Rice; assay: Herbicidal activity, water, pre-emergence; type: in vivo; conditions: Oryza sativa, Water, 1000 gram/hectare
# Method: as §1, §2
# [14] = system: Echinochloa; assay: Herbicidal activity, water, pre-emergence; type: in vivo; conditions: Water, 1000 gram/hectare
# Method: as §1, §2
# [15] = system: Solanum; assay: Herbicidal activity, water, pre-emergence; type: in vivo; conditions: Water, 1000 gram/hectare
# Method: as §1, §2
# [16] = system: Lepidium; assay: Herbicidal activity, water, pre-emergence; type: in vivo; conditions: Water, 1000 gram/hectare
# Method: as §1, §2
# [17] = system: Amaranthus retroflexus; assay: Herbicidal activity, soil, pre-emergence; type: in vivo; conditions: Soil, pre-emergence, 500 gram/hectare
# Method: as §1, §2
# [18] = system: Setaria viridis; assay: Herbicidal activity, soil, pre-emergence; type: in vivo; conditions: Soil, pre-emergence, 500 gram/hectare
# Method: as §1, §2
# [19] = system: Galium aperine; assay: Herbicidal activity, soil, pre-emergence; type: in vivo; conditions: Soil, pre-emergence, 500 gram/hectare
# Method: as §1, §2
# [20] = system: Cyperus esculentus; assay: Herbicidal activity, soil, pre-emergence; type: in vivo; conditions: Soil, pre-emergence, 500 gram/hectare
# Method: as §1, §2
# [21] = system: Avena fatua; assay: Herbicidal activity, soil, pre-emergence; type: in vivo; conditions: Soil, pre-emergence, 500 gram/hectare
# Method: as §1, §2
# [22] = system: Beta vulgaris; assay: Herbicidal activity, soil, pre-emergence; type: in vivo; conditions: Soil, pre-emergence, 500 gram/hectare
# Method: as §1, §2
# [23] = system: Zea mays; assay: Herbicidal activity, soil, pre-emergence; type: in vivo; conditions: Soil, pre-emergence, 500 gram/hectare
# Method: as §1, §2
# [24] = system: Xanthium strumarium; assay: Herbicidal activity, soil, pre-emergence; type: in vivo; conditions: Soil, pre-emergence, 500 gram/hectare
# Method: as §1, §2
# [25] = system: Alopecurus myosuroides; assay: Herbicidal activity, soil, pre-emergence; type: in vivo; conditions: Soil, pre-emergence, 500 gram/hectare
# Method: as §1, §2
# [26] = system: Sinapis arvensis; assay: Herbicidal activity, soil, pre-emergence; type: in vivo; conditions: Mutarda arvensis; Soil, pre-emergence; 500 gram/hectare
# Method: as §1, §2
# [27] = system: Abutilon theophrasti; assay: Herbicidal activity, soil, pre-emergence; type: in vivo; conditions: Soil, pre-emergence, 500 gram/hectare
# Method: as §1, §2
# [28] = system: Plasmodium falciparum; assay: Antimalarial activity, in vitro culture, [3H]-hypoxanthine incorporation; type: cell-based; conditions: 72 h, asynchronous culture, 48 h + 24 h with [3H]-hypoxanthine, read-out: IC50 (nM) of malaria culture (Plasmodium falciparum)
# Method: The antimalarial activity of substances 1 to 8 (see page 5) was determined using in vitro cultures of the causative organism of malaria, Plasmodium falciparum. 200 μl of an asynchronous Plasmodium falciparum culture with a 0.4% blood parasite content and a heamatocrit of 2% were loaded into each of the wells of a 96 well microtitre plate. A serial dilution series of the compounds was then prepared in steps of three between concentrations of 100 and 0.14 μmol l^−1. The plates were incubated at 37° C., 3% CO2 and 5% O2 over a period of 48 hours. 30 μl of medium supplemented with 27 μCi ml^−1 of [^3H]-hypoxanthine were then added to each well. After 24 hours' incubation, the parasites were harvested by filtration through glass fibre filters and the incorporated radioactivity was measured. Inhibition of parasite growth was measured as the percentage inhibition of tritium incorporation. Inhibition of parasite growth was expressed as the percentage inhibition of tritium incorporation relative to a comparison without the substance. The median inhibitory concentration (IC50) of the substance was determined by extrapolating the values.
smiles,measurement,setting,value
CCCC(=O)N(O)C(C)N(C)CC(O)P(C)(C)=O (stereo not shown) [Compound 1],pest or weed control at 500 g/ha,[1],0%
same,pest or weed control at 500 g/ha,[2],95%
same,pest or weed control at 500 g/ha,[3],60%
same,pest or weed control at 500 g/ha,[4],0%
same,pest or weed control at 500 g/ha,[5],50%
same,plant injury at 500 g/ha,[6],50%
same,plant injury at 500 g/ha,[7],80%
same,pest or weed control at 500 g/ha,[8],60%
same,pest or weed control at 500 g/ha,[9],60%
same,pest or weed control at 500 g/ha,[10],95%
same,pest or weed control at 500 g/ha,[11],40%
same,IC50,[12],80 nM
same,plant injury at 1000 g/ha,[13],40%
same,pest or weed control at 1000 g/ha,[14],70%
same,pest or weed control at 1000 g/ha,[15],0%
same,pest or weed control at 1000 g/ha,[16],50%
same,pest or weed control at 500 g/ha,[17],0%
same,pest or weed control at 500 g/ha,[18],0%
same,pest or weed control at 500 g/ha,[19],0%
same,pest or weed control at 500 g/ha,[20],0%
same,pest or weed control at 500 g/ha,[21],0%
same,plant injury at 500 g/ha,[22],30%
same,plant injury at 500 g/ha,[23],0%
same,pest or weed control at 500 g/ha,[24],0%
same,pest or weed control at 500 g/ha,[25],40%
same,pest or weed control at 500 g/ha,[26],40%
same,pest or weed control at 500 g/ha,[27],0%
same,IC50,[28],580 nM
